From publication PMC6832920, “Synthesis, Docking Studies, and In Vitro Evaluation of Some Novel Thienopyridines and Fused Thienopyridine–Quinolines as Antibacterial Agents and DNA Gyrase Inhibitors” (Molecules, 2019) come the findings set out here.

In brackets after ≈: the same amount, converted by molar mass.

The test system of data set [1] is Pseudomonas aeruginosa 27853. The data set can be described thus: MIC determination by dilution procedure. The following applies: Pseudomonas aeruginosa, 27853, P. aeruginosa 27853; dilutions 125-1.95 μg/mL; read-out: minimum inhibitory concentration (MIC). It counts as cell-based.
Data set [2] relates to Escherichia coli 8739. The data set can be described thus: agar disc-diffusion antibacterial assay. The following applies: E. coli 8739, disc loaded with 100 μg, 37 °C, 24 h, read-out: diameter of inhibition zone. It counts as cell-based. For orientation: Agar diffusion results depend on both activity and mobility in agar.
Protocol: (§1) The clinical control strains of Gram-negative bacteria (Escherichia coli 8739, Salmonella typhimurium 14028, Pseudomonas aeruginosa 27853) and Gram-positive bacteria (Bacillus subtilis 6633, Bacillus cereus 33018, Staphylococcus aureus 25923), were obtained from microbial inoculums by subculturing microorganisms into nutrient broth (NB) at 37 °C for 18 h, and were adjusted to 0.125 A° at 625 nm (equivalent to a McFarland 0.5) in 2-fold NB. A 100 μL measure of NB containing each test microorganism was added to the sterile Petri dishes. Antibacterial testing was carried out on all compounds (3a,b–14) using the agar disc-diffusion method [40]. Sterile nutrients were inoculated with 100 μL cell suspension of the chosen test microorganism and poured into Petri dishes (20 cm diameter). Filter paper discs (Whatman, No.3, diameter 5 mm) were loaded with 10 μL containing 100 μg of the tested compounds, as well as the standard drug. Composite compound disks were placed on the surface of inoculated agar plates and kept at low temperatures before incubation in order to support the swelling and diffusion of the microbial growth. The plates were incubated at 37 °C in the incubator. Experiments were performed in duplicate and the diameters of inhibition zones were measured after 24 h. A diameter of inhibition zone (DIZ) assay was performed to evaluate the antimicrobial potential of the compounds against the tested organisms compared with reference antibiotics.
Data set [3] has as its system Bacillus subtilis 6633. Put plainly: agar disc-diffusion antibacterial assay. The following applies: B. subtilis 6633, disc loaded with 100 μg, 37 °C, 24 h, read-out: diameter of inhibition zone. It counts as cell-based.
Protocol: (§2) A 100 μL measure of NB containing each test microorganism was added to the sterile Petri dishes. Antibacterial testing was carried out on all compounds (3a,b–14) using the agar disc-diffusion method [40]. Sterile nutrients were inoculated with 100 μL cell suspension of the chosen test microorganism and poured into Petri dishes (20 cm diameter). Filter paper discs (Whatman, No.3, diameter 5 mm) were loaded with 10 μL containing 100 μg of the tested compounds, as well as the standard drug. Composite compound disks were placed on the surface of inoculated agar plates and kept at low temperatures before incubation in order to support the swelling and diffusion of the microbial growth. The plates were incubated at 37 °C in the incubator. Experiments were performed in duplicate and the diameters of inhibition zones were measured after 24 h. A diameter of inhibition zone (DIZ) assay was performed to evaluate the antimicrobial potential of the compounds against the tested organisms compared with reference antibiotics.
The subject of data set [4] is Escherichia coli 8739. The data set can be described thus: MIC determination by dilution procedure. It counts as cell-based. The following applies: E. coli 8739, dilutions 125-1.95 μg/mL, read-out: minimum inhibitory concentration (MIC).
Data set [5] deals with Bacillus subtilis 6633. Put plainly: MIC determination by dilution procedure. It counts as cell-based. The following applies: B. subtilis 6633, dilutions 125-1.95 μg/mL, read-out: minimum inhibitory concentration (MIC).
Protocol: as §2
The test system of data set [6] is Staphylococcus aureus 25923. The data set can be described thus: agar disc-diffusion antibacterial assay. It counts as cell-based. Particulars: S. aureus 25923, disc loaded with 100 μg, 37 °C, 24 h, read-out: diameter of inhibition zone.
Protocol: as §1
The subject of data set [7] is Salmonella typhimurium 14028. The data set can be described thus: agar disc-diffusion antibacterial assay. It counts as cell-based. Particulars: Salmonella enterica; S. typhimurium 14028; disc loaded with 100 μg; 37 °C, 24 h; read-out: diameter of inhibition zone.
Protocol: (§3) The clinical control strains of Gram-negative bacteria (Escherichia coli 8739, Salmonella typhimurium 14028, Pseudomonas aeruginosa 27853) and Gram-positive bacteria (Bacillus subtilis 6633, Bacillus cereus 33018, Staphylococcus aureus 25923), were obtained from microbial inoculums by subculturing microorganisms into nutrient broth (NB) at 37 °C for 18 h, and were adjusted to 0.125 A° at 625 nm (equivalent to a McFarland 0.5) in 2-fold NB. A 100 μL measure of NB containing each test microorganism was added to the sterile Petri dishes. Antibacterial testing was carried out on all compounds (3a,b–14) using the agar disc-diffusion method [40]. Sterile nutrients were inoculated with 100 μL cell suspension of the chosen test microorganism and poured into Petri dishes (20 cm diameter). Filter paper discs (Whatman, No.3, diameter 5 mm) were loaded with 10 μL containing 100 μg of the tested compounds, as well as the standard drug. Composite compound disks were placed on the surface of inoculated agar plates and kept at low temperatures before incubation in order to support the swelling and diffusion of the microbial growth. The plates were incubated at 37 °C in the incubator. Experiments were performed in duplicate and the diameters of inhibition zones were measured after 24 h.
For data set [8], the system named is Bacillus cereus 33018. The data set can be described thus: agar disc-diffusion antibacterial assay. It counts as cell-based. The following applies: B. cereus 33018, disc loaded with 100 μg, 37 °C, 24 h, read-out: diameter of inhibition zone.
Protocol: as §2
The next data set has as its target T1, DNA gyrase from E. coli (Escherichia coli, UniProt P0AES6).
T1 construct: purchased TopoGEN
The data set can be described thus: Escherichia coli DNA gyrase supercoiling inhibition assay. It counts as biochemical.

For data set [9], the system named is Staphylococcus aureus 25923. Put plainly: MIC determination by dilution procedure. It counts as cell-based. Particulars: Staphylococcus aureus, 25923, S. aureus 25923; dilutions 125-1.95 μg/mL; read-out: minimum inhibitory concentration (MIC).
Protocol: as §2
In data set [10] the test system is Salmonella typhimurium 14028. Put plainly: MIC determination by dilution procedure. It counts as cell-based. The following applies: Salmonella enterica; S. typhimurium 14028; dilutions 125-1.95 μg/mL; read-out: minimum inhibitory concentration (MIC).
Protocol: as §3
Data set [11] has as its system Pseudomonas aeruginosa 27853. The data set can be described thus: agar disc-diffusion antibacterial assay. It counts as cell-based. Particulars: P. aeruginosa 27853, disc loaded with 100 μg, 37 °C, 24 h, read-out: diameter of inhibition zone.
Protocol: as §1
The test system of data set [12] is methicillin-resistant Staphylococcus aureus (MRSA). The data set can be described thus: inhibition zones against MRSA (disc diffusion). It counts as cell-based.
Data set [13] has as its system Bacillus cereus 33018. Put plainly: MIC determination by dilution procedure. It counts as cell-based. The following applies: B. cereus 33018, dilutions 125-1.95 μg/mL, read-out: minimum inhibitory concentration (MIC).
Protocol: as §2

Broadly, the zone of inhibition is the extent of the growth-free halo in a diffusion test. For orientation: melting point means the temperature of the solid-liquid transition. Broadly, the IC50 is the midpoint of a concentration-inhibition curve. `COc1ccc(-c2cc(-c3ccco3)nc3sc4c(NC(=O)CNN)c5c(nc4c23)CCCC5)cc1` [Compound 7a, N-(2-(furan-2-yl)-4-(4-methoxyphenyl)-6,7,8,9-tetrahydropyrido[3′,2′:4,5]thieno[3,2-b]quinolin-10-yl)-2-hydrazinylacetamide] gave a melting point of 278 °C. Moreover, the MIC in data set [1] amounted to 31.2 µg/mL (≈ 62.6 µM). Also, the zone of inhibition at 100 µg/disc with Escherichia coli 8739 [2] worked out at 16 mm. In addition, the zone of inhibition at 100 µg/disc in the data set on Bacillus subtilis 6633 [3] came out at 17 mm. In the data set on Escherichia coli 8739 [4], the MIC amounted to 15.6 µg/mL (≈ 31.3 µM). In the data set on Bacillus subtilis 6633 [5], the MIC came out at 15.6 µg/mL (≈ 31.3 µM). Besides, the zone of inhibition at 100 µg/disc in data set [6] was 19 mm. Moreover, the zone of inhibition at 100 µg/disc in data set [7] was determined as 11 mm. The zone of inhibition at 100 µg/disc in the data set with Bacillus cereus 33018 [8] is 15 mm. The molecule further showed a half-inhibitory concentration (IC50) against DNA gyrase from E. coli of 8.66 ± 0.61 µM. Besides, the MIC in data set [9] amounted to 15.6 µg/mL (≈ 31.3 µM). Also, the MIC in [10] came to 31.2 µg/mL (≈ 62.6 µM). Also, the zone of inhibition at 100 µg/disc in data set [11] is 11 mm. For the same molecule, in data set [12], the “zone of inhibition against MRSA” value is reported as 18 mm. In the data set on Bacillus cereus 33018 [13], the MIC turned out to be 15.6 µg/mL (≈ 31.3 µM).

Turning to `COc1ccc(-c2cc(-c3ccco3)nc3sc4c(NC(=O)CN5CCN(C)CC5)c5c(nc4c23)CCCC5)cc1` [Compound 9b, N-(2-(furan-2-yl)-4-(4-methoxyphenyl)-6,7,8,9-tetrahydropyrido[3′,2′:4,5]thieno[3,2-b]quinolin-10-yl)-2-(4-methylpiperazin-1-yl)acetamide], the melting point is 158 to 159 °C. Besides, the MIC in [1] was 15.6 µg/mL (≈ 27.5 µM). Further, the zone of inhibition at 100 µg/disc in the data set on Escherichia coli 8739 [2] worked out at 20 mm. Further, the zone of inhibition at 100 µg/disc with Bacillus subtilis 6633 [3] is 15 mm. Further, the MIC with Escherichia coli 8739 [4] was found to be 15.6 µg/mL (≈ 27.5 µM). Also, the MIC with Bacillus subtilis 6633 [5] came out at 15.6 µg/mL (≈ 27.5 µM). For the same molecule, the zone of inhibition at 100 µg/disc in data set [6] turned out to be 16 mm. The zone of inhibition at 100 µg/disc in data set [7] was determined as 19 mm. The zone of inhibition at 100 µg/disc in the data set on Bacillus cereus 33018 [8] was 18 mm. Moreover, the IC50 on DNA gyrase from E. coli was determined as 5.78 ± 0.46 µM. In addition, the MIC in data set [9] was 15.6 µg/mL (≈ 27.5 µM). Besides, the MIC in data set [10] is 15.6 µg/mL (≈ 27.5 µM). Besides, the zone of inhibition at 100 µg/disc in data set [11] came out at 18 mm. Further, the “zone of inhibition against MRSA” value in data set [12] was 14 mm. In addition, the MIC with Bacillus cereus 33018 [13] was 15.6 µg/mL (≈ 27.5 µM).

In turn, `COc1ccc(-c2cc(-c3ccco3)nc3sc4c(N=Cc5cccs5)c5c(nc4c23)CCCC5)cc1` [Compound 12b, N-(2-(furan-2-yl)-4-(4-methoxyphenyl)-6,7,8,9-tetrahydropyrido[3′,2′:4,5]thieno[3,2-b]quinolin-10-yl)-1-(thiophen-2-yl)methanimine] returned a melting point of 114 °C. Besides, in data set [1], the MIC is 15.6 µg/mL (≈ 30 µM). Also, the zone of inhibition at 100 µg/disc in the data set on Escherichia coli 8739 [2] amounted to 18 mm. Moreover, the zone of inhibition at 100 µg/disc in the data set with Bacillus subtilis 6633 [3] was determined as 15 mm. In addition, the MIC with Escherichia coli 8739 [4] was found to be 15.6 µg/mL (≈ 30 µM). Also, the MIC in the data set on Bacillus subtilis 6633 [5] was determined as 15.6 µg/mL (≈ 30 µM). Besides, the zone of inhibition at 100 µg/disc in data set [6] stood at 16 mm. Also, in data set [7], the zone of inhibition at 100 µg/disc was determined as 16 mm. Also, in the data set with Bacillus cereus 33018 [8], the zone of inhibition at 100 µg/disc was 15 mm. Besides, the IC50 on DNA gyrase from E. coli was 4.6 ± 0.28 µM. The MIC in data set [9] was found to be 15.6 µg/mL (≈ 30 µM). Moreover, the MIC in data set [10] came to 15.6 µg/mL (≈ 30 µM). For the same molecule, the zone of inhibition at 100 µg/disc in data set [11] came out at 16 mm. Also, in data set [12], the “zone of inhibition against MRSA” value is 15 mm. Besides, in the data set with Bacillus cereus 33018 [13], the MIC was 15.6 µg/mL (≈ 30 µM).
